pIC50: −log10 of the molar value. Where a SMILES comes first, the peptide text is derived from it.

From patent US10201586B2 (dated 2019) come the findings set out here.

Chain of TFPI (P10646 29-304 limits assumed): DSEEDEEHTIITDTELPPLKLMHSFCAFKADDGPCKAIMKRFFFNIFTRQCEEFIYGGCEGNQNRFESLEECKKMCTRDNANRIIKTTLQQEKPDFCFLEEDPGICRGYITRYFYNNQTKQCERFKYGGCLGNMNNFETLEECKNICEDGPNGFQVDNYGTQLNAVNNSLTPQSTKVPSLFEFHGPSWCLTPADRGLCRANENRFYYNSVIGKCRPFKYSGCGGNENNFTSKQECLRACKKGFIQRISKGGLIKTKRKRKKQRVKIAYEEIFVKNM

The assay addresses TFPI (Homo sapiens, UniProt P10646). The assay is described as follows: IC50 [nM].
Compound `CSCC[C@H](NC(=O)[C@H](CCC(=O)O)NC(=O)[C@H](CCCCN)NC(=O)[C@H](CO)NC(=O)[C@H](CCCNC(=N)N)NC(=O)[C@H](CCCCN)NC(=O)[C@H](CO)NC(=O)[C@@H](NC(=O)[C@H](Cc1c[nH]cn1)NC(=O)[C@H](CC(C)C)NC(=O)[C@H](CCC(N)=O)NC(=O)[C@@H](NC(=O)[C@H](C)NC(=O)[C@H](CC(C)C)NC(=O)[C@@H]1CCCN1C(=O)[C@H](Cc1ccccc1)NC(=O)[C@H](CO)NC(=O)[C@H](C)NC(=O)[C@H](C)NC(=O)CNC(=O)[C@H](CO)NC(C)=O)C(C)C)C(C)C)C(=O)N[C@@H](C)C(=O)N[C@@H](CC(C)C)C(=O)N[C@@H](C)C(=O)N[C@@H](CCCNC(=N)N)C(=O)N[C@@H](CC(C)C)C(=O)N[C@@H](Cc1ccc(O)cc1)C(=O)N[C@@H](Cc1ccc(O)cc1)C(=O)N[C@@H](CCCCN)C(=O)N[C@H](C(=O)N[C@@H](CO)C(N)=O)[C@@H](C)O` [JBT0662 | 2131] (Ac-SGAASFPLAVQLHVSKRSKEMALARLYYKTS-NH2) gave a pIC50 of 4.86. Then `CSCC[C@H](NC(=O)[C@H](CCC(=O)O)NC(=O)[C@H](CCCCN)NC(=O)[C@H](CO)NC(=O)[C@H](CCCNC(=N)N)NC(=O)[C@H](CCCCN)NC(=O)[C@H](CO)NC(=O)[C@@H](NC(=O)[C@H](Cc1c[nH]cn1)NC(=O)[C@H](CC(C)C)NC(=O)[C@H](C)NC(=O)[C@@H](NC(=O)[C@H](C)NC(=O)[C@H](CC(C)C)NC(=O)[C@@H]1CCCN1C(=O)[C@H](Cc1ccccc1)NC(=O)[C@H](CO)NC(=O)[C@H](C)NC(=O)[C@H](Cc1ccc(O)cc1)NC(=O)CNC(=O)[C@H](CO)NC(C)=O)C(C)C)C(C)C)C(=O)N[C@@H](C)C(=O)N[C@@H](CC(C)C)C(=O)N[C@@H](C)C(=O)N[C@@H](CCCNC(=N)N)C(=O)N[C@@H](CC(C)C)C(=O)N[C@@H](Cc1ccc(O)cc1)C(=O)N[C@@H](Cc1ccc(O)cc1)C(=O)N[C@@H](CCCCN)C(=O)N[C@H](C(=O)N[C@@H](CO)C(N)=O)[C@@H](C)O` [JBT0670 | 2007] (Ac-SGYASFPLAVALHVSKRSKEMALARLYYKTS-NH2), with 5.60. `CSCC[C@H](NC(=O)[C@H](CCC(=O)O)NC(=O)[C@H](CCCCN)NC(=O)[C@H](CO)NC(=O)[C@H](CCCNC(=N)N)NC(=O)[C@H](CCCCN)NC(=O)[C@H](CO)NC(=O)[C@@H](NC(=O)[C@H](Cc1c[nH]cn1)NC(=O)[C@H](C)NC(=O)[C@H](CCC(N)=O)NC(=O)[C@@H](NC(=O)[C@H](C)NC(=O)[C@H](CC(C)C)NC(=O)[C@@H]1CCCN1C(=O)[C@H](Cc1ccccc1)NC(=O)[C@H](CO)NC(=O)[C@H](C)NC(=O)[C@H](Cc1ccc(O)cc1)NC(=O)CNC(=O)[C@H](CO)NC(C)=O)C(C)C)C(C)C)C(=O)N[C@@H](C)C(=O)N[C@@H](CC(C)C)C(=O)N[C@@H](C)C(=O)N[C@@H](CCCNC(=N)N)C(=O)N[C@@H](CC(C)C)C(=O)N[C@@H](Cc1ccc(O)cc1)C(=O)N[C@@H](Cc1ccc(O)cc1)C(=O)N[C@@H](CCCCN)C(=O)N[C@H](C(=O)N[C@@H](CO)C(N)=O)[C@@H](C)O` [JBT0671 | 2019] (Ac-SGYASFPLAVQAHVSKRSKEMALARLYYKTS-NH2): the pIC50 is 5.23. The compound `CSCC[C@H](NC(=O)[C@H](CCC(=O)O)NC(=O)[C@H](CCCCN)NC(=O)[C@H](CO)NC(=O)[C@H](CCCNC(=N)N)NC(=O)[C@H](CCCCN)NC(=O)[C@H](C)NC(=O)[C@@H](NC(=O)[C@H](Cc1c[nH]cn1)NC(=O)[C@H](CC(C)C)NC(=O)[C@H](CCC(N)=O)NC(=O)[C@@H](NC(=O)[C@H](C)NC(=O)[C@H](CC(C)C)NC(=O)[C@@H]1CCCN1C(=O)[C@H](Cc1ccccc1)NC(=O)[C@H](CO)NC(=O)[C@H](C)NC(=O)[C@H](Cc1ccc(O)cc1)NC(=O)CNC(=O)[C@H](CO)NC(C)=O)C(C)C)C(C)C)C(=O)N[C@@H](C)C(=O)N[C@@H](CC(C)C)C(=O)N[C@@H](C)C(=O)N[C@@H](CCCNC(=N)N)C(=O)N[C@@H](CC(C)C)C(=O)N[C@@H](Cc1ccc(O)cc1)C(=O)N[C@@H](Cc1ccc(O)cc1)C(=O)N[C@@H](CCCCN)C(=O)N[C@H](C(=O)N[C@@H](CO)C(N)=O)[C@@H](C)O` [JBT0674 | 2008] (Ac-SGYASFPLAVQLHVAKRSKEMALARLYYKTS-NH2) had a pIC50 of 5.93.

Turning to `CSCC[C@H](NC(=O)[C@H](CCC(=O)O)NC(=O)[C@H](CCCCN)NC(=O)[C@H](CO)NC(=O)[C@H](CCCNC(=N)N)NC(=O)[C@H](C)NC(=O)[C@H](CO)NC(=O)[C@@H](NC(=O)[C@H](Cc1c[nH]cn1)NC(=O)[C@H](CC(C)C)NC(=O)[C@H](CCC(N)=O)NC(=O)[C@@H](NC(=O)[C@H](C)NC(=O)[C@H](CC(C)C)NC(=O)[C@@H]1CCCN1C(=O)[C@H](Cc1ccccc1)NC(=O)[C@H](CO)NC(=O)[C@H](C)NC(=O)[C@H](Cc1ccc(O)cc1)NC(=O)CNC(=O)[C@H](CO)NC(C)=O)C(C)C)C(C)C)C(=O)N[C@@H](C)C(=O)N[C@@H](CC(C)C)C(=O)N[C@@H](C)C(=O)N[C@@H](CCCNC(=N)N)C(=O)N[C@@H](CC(C)C)C(=O)N[C@@H](Cc1ccc(O)cc1)C(=O)N[C@@H](Cc1ccc(O)cc1)C(=O)N[C@@H](CCCCN)C(=O)N[C@H](C(=O)N[C@@H](CO)C(N)=O)[C@@H](C)O` [JBT0675 | 2136] (Ac-SGYASFPLAVQLHVSARSKEMALARLYYKTS-NH2), the pIC50 is 4.74. `CSCC[C@H](NC(=O)[C@H](CCC(=O)O)NC(=O)[C@H](CCCCN)NC(=O)[C@H](CO)NC(=O)[C@H](C)NC(=O)[C@H](CCCCN)NC(=O)[C@H](CO)NC(=O)[C@@H](NC(=O)[C@H](Cc1c[nH]cn1)NC(=O)[C@H](CC(C)C)NC(=O)[C@H](CCC(N)=O)NC(=O)[C@@H](NC(=O)[C@H](C)NC(=O)[C@H](CC(C)C)NC(=O)[C@@H]1CCCN1C(=O)[C@H](Cc1ccccc1)NC(=O)[C@H](CO)NC(=O)[C@H](C)NC(=O)[C@H](Cc1ccc(O)cc1)NC(=O)CNC(=O)[C@H](CO)NC(C)=O)C(C)C)C(C)C)C(=O)N[C@@H](C)C(=O)N[C@@H](CC(C)C)C(=O)N[C@@H](C)C(=O)N[C@@H](CCCNC(=N)N)C(=O)N[C@@H](CC(C)C)C(=O)N[C@@H](Cc1ccc(O)cc1)C(=O)N[C@@H](Cc1ccc(O)cc1)C(=O)N[C@@H](CCCCN)C(=O)N[C@H](C(=O)N[C@@H](CO)C(N)=O)[C@@H](C)O` [JBT0676 | 2137] (Ac-SGYASFPLAVQLHVSKASKEMALARLYYKTS-NH2) gave a pIC50 of 4.43.

As to `CSCC[C@H](NC(=O)[C@H](CCC(=O)O)NC(=O)[C@H](CCCCN)NC(=O)[C@H](C)NC(=O)[C@H](CCCNC(=N)N)NC(=O)[C@H](CCCCN)NC(=O)[C@H](CO)NC(=O)[C@@H](NC(=O)[C@H](Cc1c[nH]cn1)NC(=O)[C@H](CC(C)C)NC(=O)[C@H](CCC(N)=O)NC(=O)[C@@H](NC(=O)[C@H](C)NC(=O)[C@H](CC(C)C)NC(=O)[C@@H]1CCCN1C(=O)[C@H](Cc1ccccc1)NC(=O)[C@H](CO)NC(=O)[C@H](C)NC(=O)[C@H](Cc1ccc(O)cc1)NC(=O)CNC(=O)[C@H](CO)NC(C)=O)C(C)C)C(C)C)C(=O)N[C@@H](C)C(=O)N[C@@H](CC(C)C)C(=O)N[C@@H](C)C(=O)N[C@@H](CCCNC(=N)N)C(=O)N[C@@H](CC(C)C)C(=O)N[C@@H](Cc1ccc(O)cc1)C(=O)N[C@@H](Cc1ccc(O)cc1)C(=O)N[C@@H](CCCCN)C(=O)N[C@H](C(=O)N[C@@H](CO)C(N)=O)[C@@H](C)O` [JBT0677 | 2009] (Ac-SGYASFPLAVQLHVSKRAKEMALARLYYKTS-NH2), the negative logarithm of the IC50 (pIC50) is 5.72. Then `CSCC[C@H](NC(=O)[C@H](CCC(=O)O)NC(=O)[C@H](CCCCN)NC(=O)[C@H](CO)NC(=O)[C@H](CCCNC(=N)N)NC(=O)[C@H](CCCCN)NC(=O)[C@H](CO)NC(=O)[C@@H](NC(=O)[C@H](Cc1c[nH]cn1)NC(=O)[C@H](CC(C)C)NC(=O)[C@H](CCC(N)=O)NC(=O)[C@@H](NC(=O)[C@H](C)NC(=O)[C@H](CC(C)C)NC(=O)[C@@H]1CCCN1C(=O)[C@H](Cc1ccccc1)NC(=O)[C@H](CO)NC(=O)[C@H](C)NC(=O)[C@H](Cc1ccc(O)cc1)NC(=O)CNC(=O)[C@H](CO)NC(C)=O)C(C)C)C(C)C)C(=O)N[C@@H](C)C(=O)N[C@@H](CC(C)C)C(=O)N[C@@H](C)C(=O)N[C@@H](CCCNC(=N)N)C(=O)N[C@@H](C)C(=O)N[C@@H](Cc1ccc(O)cc1)C(=O)N[C@@H](Cc1ccc(O)cc1)C(=O)N[C@@H](CCCCN)C(=O)N[C@H](C(=O)N[C@@H](CO)C(N)=O)[C@@H](C)O` [JBT0685 | 2021] (Ac-SGYASFPLAVQLHVSKRSKEMALARAYYKTS-NH2), with 5.04. Then `CSCC[C@H](NC(=O)[C@H](CCC(=O)O)NC(=O)[C@H](CCCCN)NC(=O)[C@H](CO)NC(=O)[C@H](CCCNC(=N)N)NC(=O)[C@H](CCCCN)NC(=O)[C@H](CO)NC(=O)[C@@H](NC(=O)[C@H](Cc1c[nH]cn1)NC(=O)[C@H](CC(C)C)NC(=O)[C@H](CCC(N)=O)NC(=O)[C@@H](NC(=O)[C@H](C)NC(=O)[C@H](CC(C)C)NC(=O)[C@@H]1CCCN1C(=O)[C@H](Cc1ccccc1)NC(=O)[C@H](CO)NC(=O)[C@H](C)NC(=O)[C@H](Cc1ccc(O)cc1)NC(=O)CNC(=O)[C@H](CO)NC(C)=O)C(C)C)C(C)C)C(=O)N[C@@H](C)C(=O)N[C@@H](CC(C)C)C(=O)N[C@@H](C)C(=O)N[C@@H](CCCNC(=N)N)C(=O)N[C@@H](CC(C)C)C(=O)N[C@@H](C)C(=O)N[C@@H](Cc1ccc(O)cc1)C(=O)N[C@@H](CCCCN)C(=O)N[C@H](C(=O)N[C@@H](CO)C(N)=O)[C@@H](C)O` [JBT0686 | 2140] (Ac-SGYASFPLAVQLHVSKRSKEMALARLAYKTS-NH2), with 4.87; and `CSCC[C@H](NC(=O)[C@H](CCC(=O)O)NC(=O)[C@H](CCCCN)NC(=O)[C@H](CO)NC(=O)[C@H](CCCNC(=N)N)NC(=O)[C@H](CCCCN)NC(=O)[C@H](CO)NC(=O)[C@@H](NC(=O)[C@H](Cc1c[nH]cn1)NC(=O)[C@H](CC(C)C)NC(=O)[C@H](CCC(N)=O)NC(=O)[C@@H](NC(=O)[C@H](C)NC(=O)[C@H](CC(C)C)NC(=O)[C@@H]1CCCN1C(=O)[C@H](Cc1ccccc1)NC(=O)[C@H](CO)NC(=O)[C@H](C)NC(=O)[C@H](Cc1ccc(O)cc1)NC(=O)CNC(=O)[C@H](CO)NC(=O)[C@H](CO)NC(=O)CN)C(C)C)C(C)C)C(=O)N[C@@H](C)C(=O)N[C@@H](CC(C)C)C(=O)N[C@@H](C)C(=O)N[C@@H](CCCNC(=N)N)C(=O)N[C@@H](CC(C)C)C(=O)N[C@@H](Cc1ccc(O)cc1)C(=O)N[C@@H](Cc1ccc(O)cc1)C(=O)N[C@@H](CCCCN)C(=O)N[C@H](C(=O)N[C@@H](CO)C(=O)O)[C@@H](C)O` [JBT0788] (H-GSSGYASFPLAVQLHVSKRSKEMALARLYYKTS-OH), with 4.79.
